Patent US20250145606A1 (Arcus Biosciences, Inc., priority 2023, published 2025)
Where two headings read alike, the source gives them in different places. Marks after values point to notes of the source that are not given here.

Assays:
[1] = test system: Phospho-KIT (Y703) in M07e cells; test: Phospho-KIT (Y703) cellular assay in M07e cells; type: cell-based; settings: M-07e, read-out: M07e Cell IC50
Method in brief: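 Serum-starved M07e cells preincubated 50 min at 37° C with 11-point half-log compound titration, then stimulated 10 min with SCF at 90.9 ng/mL final. Fixed, permeabilized cells stained for phospho-KIT Y703 and read by flow cytometry (live-gated geometric mean); IC50 by 4-parameter fit normalized to DMSO and positive control.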

beagle dog hepatocytes = test: Bioactivation assessment in dog hepatocytes; type: in vitro ADME; settings: 5 μM, 4 hours
Protocol: Bioactivation Assessment Procedure
Pooled male Sprague Dawley rat (BioIVT), male beagle dog (BioIVT), male cynomolgus monkey (BioIVT), and a 50-donor pool of cryopreserved human hepatocytes (BioIVT) was thawed in pre-warmed 37° C. InVitroGro™ HT media (BioIVT), centrifuged, and resuspended in the InVitroGro™ HI media (BioIVT). The number of viable cells was determined by the Trypan blue exclusion method. The cells were diluted to a concentration of two million viable cells per milliliter (viability >80%) and seeded into round-bottom 96-well plates. The test articles were dissolved in DMSO and further diluted in 50% CH3CN and InVitroGro™ HI media with final concentrations of 0.05% DMSO and 0.5% CH3CN in the incubation mixture. Incubation was performed at a final concentration of one million cells per milliliter and 5 μM test compounds with continuous shaking at 1100 rpm in a 37° C., 5/95% CO2/air incubator with 100% relative humidity. After 4 hours, the samples were quenched by addition of 3 volumes of CH3CN, vortexed for 15 minutes, and centrifuged at 4200 rpm for 15 minutes at 10° C. (Sorvall Legend XTR centrifuge, Thermo Scientific, Langenselbold, Germany). 80 μL of the resulting supernatant was transferred into a new plate and mixed with 160 μL water followed by liquid chromatography-high resolution mass spectrometry (LC-HRMS) analysis.
Structural assignments of metabolites were determined through mass spectral analysis. The level of bioactivation was estimated based on the relative peak area of bioactivation products to all identified metabolites. The following equation was used: […]
Bioactivation products included glutathione conjugates, imine methides, quinones, diols, and other relevant metabolites.

[2] = phospho-KIT (Y703), SCF-stimulated M07e cells

Row | Percent of total metabolism via bioactivation, Dog hepatocytes (beagle dog hepatocytes) | IC50 ([1]; Phospho-KIT (Y703), M07e cells) | IC50 [1, 2] | SMILES | IC50 [1]
1 | <1% | < 100 nM |  | Cc1ncc(C(=O)Nc2cc(C(=O)Nc3ccc(OC(F)F)cn3)c(F)cc2C)s1 [Example 38, N-[5-[[5-(difluoromethoxy)pyridin-2-yl]carbamoyl]-4-fluoro-2-methylphenyl]-2-methyl-1,3-thiazole-5-carboxamide] | 
2 | 97% | < 100 nM |  | Cc1ncc(C(=O)Nc2cc(C(=O)Nc3ccc(CC(F)(F)F)cn3)c(F)cc2Cl)s1 [Example 46, N-[2-chloro-4-fluoro-5-[[5-(2,2,2-trifluoroethyl)pyridin-2-yl]carbamoyl]phenyl]-2-methyl-1,3-thiazole-5-carboxamide] | 
3 | <1%^a |  | < 100 nM | Cc1ncc(C(=O)Nc2cc(C(=O)Nc3cnc(OCC(C)(F)F)cn3)c(F)cc2C)s1 [Example 4, N-[5-[[5-(2,2-Difluoropropoxy)pyrazin-2-yl]carbamoyl]-4-fluoro-2-methylphenyl]-2-methyl-1,3-thiazole-5-carboxamide] | 
4 | 3-4%^a |  | < 100 nM | Cc1ncc(C(=O)Nc2cc(C(=O)Nc3ccc(OC4CC4)cn3)c(F)cc2C)s1 [Example 2, N-[5-[(5-Cyclopropyloxypyridin-2-yl)carbamoyl]-4-fluoro-2-methylphenyl]-2-methyl-1,3-thiazole-5-carboxamide] | 

Row | SMILES | Percent of total metabolism via bioactivation, Dog hepatocytes (beagle dog hepatocytes) | IC50 ([1]; Phospho-KIT (Y703), M07e cells) | IC50 [1, 2] | IC50 [1]
5 | Cc1ncc(C(=O)Nc2cc(C(=O)Nc3ccc(CC4CC4)cn3)c(F)cc2C)s1 [Example 5, N-[5-[[5-(Cyclopropylmethyl)pyridin-2-yl]carbamoyl]-4-fluoro-2-methylphenyl]-2-methyl-1,3-thiazole-5-carboxamide] | 4% |  |  | < 100 nM
6 | Cc1ncc(C(=O)Nc2cc(C(=O)Nc3ccc(C4CC4)cn3)c(F)cc2C)s1 [Example 3, N-[5-[(5-Cyclopropylpyridin-2-yl)carbamoyl]-4-fluoro-2-methylphenyl]-2-methyl-1,3-thiazole-5-carboxamide] | 2% |  |  | < 100 nM
7 | Cc1ncc(C(=O)Nc2cc(C(=O)Nc3ccc(CC(F)(F)F)cn3)c(F)cc2C)s1 [Example 1, N-[4-Fluoro-2-methyl-5-[[5-(2,2,2-trifluoroethyl)pyridin-2-yl]carbamoyl]phenyl]-2-methyl-1,3-thiazole-5-carboxamide] | <1%^b |  |  | < 100 nM
